Marks after values point to notes of the source that are not given here.
Experiments:
[1] = Solubility in coating solvent
[2] = UV absorption spectra measured in solution; format: physicochemical; conditions: for ε (molar extinction coefficient): at absorption maximum; for Δλ (solvent-induced wavelength shift): |λDMF−λdioxane|
From the text: In the case of a write-once optical data carrier according to the invention which is written on and read by means of the light of a blue laser, preference is given to merocyanine dyes whose absorption maximum λmax1 is in the range from 340 to 410 nm, […] half of the […] one tenth of the absorbance value at λmax1 are preferably not more than 50 nm apart. Such a merocyanine dye preferably has no longer-wavelength maximum λmax2 up to a wavelength of 500 nm, particularly preferably up to 550 nm, very particularly preferably up to 600 nm.
The absorption spectra are measured, for example, in solution.
Suitable merocyanines having the required spectral properties are, in particular, those in which the dipole moment change Δμ=|μg−μag|, i.e. the positive difference between the dipole moments in the ground state and in the first excited state, is very small, preferably <5 D, particularly preferably <2 D. A method of determining such a dipole moment change Δμ is described, for example, in F. Würthner et al., Angew. Chem. 1997, 109, 2933, and in the literature cited therein. A low solvent-induced wavelength shift (dioxane/DMF) is likewise a suitable selection criterion. Preference is given to merocyanines whose solvent-induced wavelength shift Δλ=|λDMF−λdioxane|, i.e. the positive difference between the absorption wavelengths in the solvents dimethylformamide and dioxane, is <20 nm, particularly preferably <10 nm, very particularly preferably <5 nm

[3] = in TFP (2,2,3,3-tetrafluoropropanol)
[4] = Table 2, on the long wavelength flank
[5] = Table 2, on the short wavelength flank

CC1=C([n+]2ccccc2)C(=O)NC(=O)/C1=C/C=C1\N(C)c2ccccc2C1(C)C [Example 3]
Solubility [1, 3]: > 2% | ε (molar extinction coefficient) [2]: 86510 L/mol/cm | UV λmax ([2]; in methanol): 513 nm | λ1/2-λ1/10 ([2]; short wavelength flank): 38 nm

CC1=C(C#N)C(=O)N(C2CCCCC2)C(=O)C1=CC=C1N(C)c2ccccc2C1(C)C [Example 45]
ε ([2]; Table 2): 55910 L/mol/cm | λmax ([2]; Table 2, in dioxane): 519 nm | λ1/2-λ1/10 [2, 4]: 11^4) nm

COC(=O)C(C#N)=CC=CN1CCOCC1 [Example 79]
ε ([2]; Table 3): 62900 L/mol/cm | λmax ([2]; Table 3, in dioxane): 382 nm

CCCCN1C(=O)C(=CC=CN(C)C)C(C(F)(F)F)=C(C#N)C1=O [Example 71]
ε ([2]; Table 3): 89100 L/mol/cm | λmax ([2]; Table 3, in DMF): 564^6) nm

CCN(CC)c1ncc(C=C(C#N)[n+]2ccccc2)s1.[O-][Cl+3]([O-])([O-])[O-] [Example 33]
ε ([2]; Table 1): 28360 L/mol/cm | λmax ([2]; Table 1, in methanol): 432^5) nm

CCCN1C(=O)C(=Cc2cnc(N(C)C)s2)C(C)=C(C#N)C1=O [Example 6]
ε ([2]; Table 1): 62860 L/mol/cm | λmax ([2]; Table 1, in dioxane): 502 nm | λ1/2-λ1/10 ([2]; Table 1, on the short wavelength flank): 33^3) nm

CCOC(=O)C(C#N)=c1[nH]c(=O)c(=CC=CN(C)C)c(C)c1C(=O)OCC [Example 85]
λmax ([2]; Table 3, in methanol): 509^5) nm

CCCCN1C(=O)C(=CC=C2N(C)c3ccc(C(=O)OC)cc3C2(C)C)C(=O)c2ccccc21 [Example 53]
ε ([2]; Table 2): 110332 L/mol/cm | λmax ([2]; Table 2, in dioxane): 500 nm

CCCCCCCCCCCCN1C(=O)/C(=C/c2ccc(N(C)C)o2)C(=O)N(C)C1=O [Example 4]
Solubility ([1]; in benzyl alcohol): > 1% | ε (molar extinction coefficient) [2]: 53360 L/mol/cm | UV λmax ([2]; in dioxane): 483 nm | λ1/2-λ1/10 ([2]; short wavelength flank): 32 nm

CN(C=CC=C1C(=O)c2ccccc2C1=O)c1ccccc1 [Example 73]
ε ([2]; Table 3): 84070 L/mol/cm | λmax ([2]; Table 3, in dioxane): 447 nm

CCCCN(CCCC)c1ccc(C=C2C(=O)N(CCC)C(=O)C(C#N)=C2C)s1 [Example 18]
ε ([2]; Table 1): 112260 L/mol/cm | λmax ([2]; Table 1, in dioxane): 535 nm | λ1/2-λ1/10 ([2]; Table 1, on the long wavelength flank): 13^4) nm

CCCCN1C(=O)C(=CC=C2Oc3ccccc3N2CC)C(C)=C(C#N)C1=O [Example 55]
ε ([2]; Table 2): 109380 L/mol/cm | λmax ([2]; Table 2, in methylene chloride): 490^6) nm | Δλ ([2]; Table 2, |λDMF - λdioxane|): 5 nm

CN1C(=CC=C2C(=O)CC(C)(C)CC2=O)C(C)(C)c2ccccc21 [Example 41]
ε ([2]; Table 2): 76130 L/mol/cm | λmax ([2]; Table 2, in dioxane): 469 nm | λ1/2-λ1/10 [2, 5]: 28^3) nm | Δλ ([2]; Table 2, |λDMF - λdioxane|): 3 nm

COC(=O)C(=CC=CN1CCOCC1)C(=O)OC [Example 78]
λmax ([2]; Table 3, in dioxane): 366 nm

CN1C(=CC=C2C(=O)OC(C)(C)OC2=O)C(C)(C)c2ccccc21 [Example 40]
ε ([2]; Table 2): 76260 L/mol/cm | λmax ([2]; Table 2, in dioxane): 448 nm | λ1/2-λ1/10 [2, 5]: 27^3) nm | Δλ ([2]; Table 2, |λDMF - λdioxane|): 2 nm

CCN1C(=O)C(=CC=CC=CN(C)C)C(C)=C(C#N)C1=O [Example 84]
ε ([2]; Table 3): 149800 L/mol/cm | λmax ([2]; Table 3, in DMF): 552^6) nm

CCCCN1C(=O)C(=CC=C2N(C)c3ccccc3C2(C)C)C(C)=C(C#N)C1=O [Example 42]
ε ([2]; Table 2): 113100 L/mol/cm | λmax ([2]; Table 2, in dioxane): 520 nm | λ1/2-λ1/10 [2, 4]: 12^4) nm | Δλ ([2]; Table 2, |λDMF - λdioxane|): 2 nm

COc1ccc2c(c1)C(C)(C)C(=CC=C1C(=O)N(c3ccc(C4CCS(=O)(=O)C4)cc3)N=C1C)N2C (centres unmarked) [Example 50]
ε ([2]; Table 2): 47640 L/mol/cm | λmax ([2]; Table 2, in dioxane): 473 nm

CCOC(=O)C1=C(C#N)C(=O)N(C)C(=O)/C1=C/C=C/N(C)C [Example 2]
Solubility [1, 3]: > 2% | ε (molar extinction coefficient) [2]: 31630 L/mol/cm | UV λmax ([2]; in DMF): 567 nm | UV λmax ([2]; in dioxane): 542 nm | λ1/2-λ1/10 ([2]; short wavelength flank): 42 nm | Δλ (solvent-induced wavelength shift) [2]: 25 nm

CCCCN(CCCC)c1ncc(C=C2C(=O)N(CC)C(=O)C(C#N)=C2C)s1 [Example 13]
ε ([2]; Table 1): 78400 L/mol/cm | λmax ([2]; Table 1, in dioxane): 508 nm

COC(=O)c1ccc2c(c1)C(C)(C)C(=CC=c1c(C)c(C#N)c(=C(C#N)C#N)[nH]c1=O)N2C [Example 67]
ε ([2]; Table 2): 50900 L/mol/cm | λmax ([2]; Table 2, in methanol): 554^5) nm

CCCCCCCCCCCCN1C(=O)C(=Cc2ccc(N(C)C)o2)C(=O)N(C)C1=O [Example 15]
ε ([2]; Table 1): 53360 L/mol/cm | λmax ([2]; Table 1, in dioxane): 483 nm

CCOC(=O)C1=C(C#N)C(=O)N(C)C(=O)/C1=C/C=C1\N(C)c2ccccc2C1(C)C [Example 1]
Solubility [1, 3]: > 2% | ε (molar extinction coefficient) [2]: 56010 L/mol/cm | UV λmax ([2]; in DMF): 609 nm | UV λmax ([2]; in dioxane): 587 nm | λ1/2-λ1/10 ([2]; long wavelength flank): 27 nm | Δλ (solvent-induced wavelength shift) [2]: 22 nm

COc1ccc(N(C)C=CC=C2C(=O)NC(=O)C([n+]3ccccc3)=C2C)cc1.[O-][Cl+3]([O-])([O-])[O-] [Example 75]
ε ([2]; Table 3): 62780 L/mol/cm | λmax ([2]; Table 3, in methanol): 469^5) nm

CCN1C(=O)C(=Cc2ccc(N3CCCC3)o2)C(C)=C(C#N)C1=O [Example 17]
ε ([2]; Table 1): 115603 L/mol/cm | λmax ([2]; Table 1, in DMF): 536^6) nm | Δλ ([2]; Table 1, |λDMF-λdioxane|): 2 nm

CCCN1C(=O)C(=CC=CN(C)c2ccc(OC)cc2)C(C)=C(C#N)C1=O [Example 74]
ε ([2]; Table 3): 73010 L/mol/cm | λmax ([2]; Table 3, in dioxane): 482 nm | Δλ ([2]; Table 3, |λDMF-λdioxane|): 4.3 nm

CCN1CCCC1=CC=C1SC(=S)N(CC)C1=O [Example 60]
ε ([2]; Table 2): 75006 L/mol/cm | λmax ([2]; Table 2, in dioxane): 466 nm | λ1/2-λ1/10 [2, 4]: 10^4) nm

C=C(C)C(=O)OCCN1C(=O)C(=CC=CN2CCOCC2)C(C)=C(C#N)C1=O [Example 76]
ε ([2]; Table 3): 89800 L/mol/cm | λmax ([2]; Table 3, in dioxane): 458 nm | λ1/2-λ1/10 ([2]; Table 3, on the short wavelength flank): 28^3) nm

CN1C(=CC=C(C#N)c2nc3ccccc3s2)C(C)(C)c2ccccc21 [Example 57]
ε ([2]; Table 2): 57230 L/mol/cm | λmax ([2]; Table 2, in dioxane): 462 nm | λ1/2-λ1/10 [2, 5]: 34^3) nm

— patent US20030003396A1, “Optical data carrier comprising a merocyanine dye as light-absorbent compound in the information layer” (priority 2001, published 2003)
